US9175007B2, “IRAK inhibitors and uses thereof” (Nimbus Iris, Inc., priority 2013, dated 2015)
Structures can show the parent of a compound that is named as a salt.

What was measured:
IRAK4 = molecular target: T1, IRAK4 (Homo sapiens, UniProt Q9NWZ3); experiment: IRAK-4 activity inhibition assay (Caliper); format: biochemical; settings: 3.5 nM IRAK4, 37 μM ATP, 1.5 μM Peptide 8
T1 construct: purchased CARNA Bioscience 09-145
T1 sequence (Q9NWZ3 1-460): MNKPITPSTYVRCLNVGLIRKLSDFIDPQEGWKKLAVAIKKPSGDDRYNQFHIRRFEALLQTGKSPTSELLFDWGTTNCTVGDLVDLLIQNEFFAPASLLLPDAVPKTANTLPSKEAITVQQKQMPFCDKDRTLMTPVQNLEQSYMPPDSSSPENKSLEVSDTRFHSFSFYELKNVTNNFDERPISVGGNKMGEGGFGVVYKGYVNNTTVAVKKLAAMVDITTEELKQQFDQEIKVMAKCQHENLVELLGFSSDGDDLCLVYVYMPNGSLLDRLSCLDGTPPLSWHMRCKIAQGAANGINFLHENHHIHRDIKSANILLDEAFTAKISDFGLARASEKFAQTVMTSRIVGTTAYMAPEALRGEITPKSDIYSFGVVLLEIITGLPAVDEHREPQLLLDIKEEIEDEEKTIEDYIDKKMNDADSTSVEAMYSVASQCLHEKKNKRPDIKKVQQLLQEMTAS
Description: A 1× kinase base buffer was prepared from 50 mM HEPES, pH 7.5 and 0.0015% Brij-35. A stop buffer was prepared from 100 mM HEPES, pH 7.5, 0.015% Brij-35, 0.2% Coating Reagent #3, and 50 mM EDTA.
Test compound was diluted to 50× of the final desired highest inhibitor concentration in reaction by 100% DMSO. 100 ul of this compound dilution was transferred to a well in a 96-well plate.
Test compound was serially diluted by transferring 30 μl to 60 μl of 100% DMSO in the next well and so forth for a total of 10 concentrations. 100 μl of 100% DMSO was added to two empty wells for no compound control and no enzyme control in the same 96-well plate.
A new 96-well plate was marked as intermediate plate. 5 μl of compound serial dilution was transferred from source plate to the corresponding wells of the intermediate plate. 45 μl of 1× kinase base buffer (KB buffer) was added to each well of the intermediate plate. The intermediate plate was placed for 10 min on a shaker.
5 μl of each well was transferred from the 96-well intermediate plate to a 384-well plate in duplicates. For example, A1 of the 96-well plate is transferred to A1 and A2 of the 384-well plate. A2 of the 96-well plate is transferred to A3 and A4 of the 384-well plate, and so on.
IRAK4 and DTT in 1× kinase base buffer was added. The 2.5× enzyme mix contained 8.8 nM IRAK4 and 5 mM DTT.
Peptide 8, ATP, MgCl2 and MnCl2 were added in the 1× kinase base buffer. The 2.5× peptide mix contained 3.75 μM peptide 8, 92.5 μM ATP, 12.5 mM MgCl2 and 2.5 mM MnCl2.
Assay plate already contained 5 μl of compound in 10% DMSO. Added 10 μl of 2.5× enzyme solution to each well of the 384-well assay plate, except no enzyme control wells. The final concentration of IRAK4 in reaction was 3.5 nM. Added 10 μl of 1× kinase base buffer to no enzyme control wells in the assay plate. Incubated at room temperature for 10 min.
Added 10 μl of 2.5× peptide solution to each well of the 384-well assay plate. The final concentration of Peptide 8 and ATP was 1.5 μM and 37 μM, respectively. Incubated at 28° C. for 40 minutes. Added 25 μl of stop buffer to stop reaction. Collected data on Caliper.
Copied conversion % data from Caliper program. Converted conversion % values to percent inhibition values. Percent inhibition=(max-conversion %)/(max-min)*100, where “max” means the conversion % of DMSO control and “min” means the conversion % of no enzyme control.

[1] = tested on: TNFα production in THP-1 cells; experiment: LPS induced TNFα production assay in THP-1 cells; format: cell-based; settings: Homo sapiens, 300 ng/mL LPS
Description: (§1) Provided compounds were also assayed in an LPS (Lipopolysacharide) or R848 (TLR-7 agonist) induced cytokine (TNFα and IL8) production assay in THP-1 cells, human peripheral blood mononuclear cells (hPBMC), and whole blood. The exemplary protocol for this assay in THP-1 cells was as follows below.
(§2) THP-1 cells from ATCC (TIB-202) were cultured in RPMI Medium 1640 (Invitrogen, Cat No. A10491-01), 10% fetal bovine serum (Invitrogen, Cat No. 10099141, Lot No. 8172882) containing 100 U/mL Penicillin, 100 μg/mL streptomycin (Invitrogen, Cat No. 15140-122), and 50 uM 2-Mercaptoethanol (Invitrogen, Cat No. 21985023). LPS-EK ultra pure (Invivogen, Cat No. tlrl-peklps) was used to induce IL8 and TNFα production, that was detected in the cell culture supernatant by IL8 HTRF kit (Cisbio, Cat No. 62IL8PEB) and TNFα HTRF kit (Cisbio, Cat No. 62TNFPEB), as per manufacturer instructions. Cells were cultured in 96 well assay plates at 100,000 cells per well, and compounds diluted in final 0.3% DMSO were pre-incubated with cells for 1 hour prior to stimulation with 300 ng/mL LPS. Cytokine production in cell supernatant was measured at 5 hours for TNFα and IL8 production, and for 16 hours for IL8 production and assessment of cell viability.

[2] = tested on: IL8 production in THP-1 cells; experiment: LPS induced IL8 production assay in THP-1 cells; format: cell-based; settings: Homo sapiens, 300 ng/mL LPS
Description: as §1, §2

[3] = tested on: TNF-α production in whole blood; experiment: In vitro R848-induced TNF-α production in whole blood; format: cell-based; settings: Homo sapiens, R848 1 uM

IC50 (IRAK4) [µM] | IC50 [1] [µM] | IC50 [2] [µM] | IC50 [3] [µM] | SMILES
≤ 5 | ≤ 0.5 | ≤ 0.5 | – | Cn1cc(Nc2nc(O[C@H]3CC[C@H](N(C)C)CC3)c3c4c(sc3n2)CCC4)cn1 [Compound I-14, 12-[[4-(dimethylamino)cyclohexyl]oxy]-N-(1-methyl-1H-pyrazol-4-yl)-7-thia-9,11-diazatricyclo[6.4.0.0[2,6]]dodeca-1(8),2(6),9,11-tetraen-10-amine]
≤ 5 | – | – | ≥ 1 | Cn1cc(Nc2nc(O[C@H]3CC[C@H](N(C)C)CC3)c3c4c(sc3n2)CC[C@@H]4CC(N)=O)cn1 [Compound I-22, 2-[(3R)-12-[[4-(dimethylamino)cyclohexyl]oxy]-10-[(1-methyl-1H-pyrazol-4-yl)amino]-7-thia-9,11-diazatricyclo[6.4.0.0[2,6]]dodeca-1(8),2(6),9,11-tetraen-3-yl]acetamide]
≤ 5 | ≤ 0.5 | ≤ 0.5 | – | CN(C)[C@H]1CC[C@H](Oc2nc(Nc3ccccc3)nc3sc4c(c23)[C@@H](CC(N)=O)CC4)CC1 [Compound I-24, 2-[(3R)-10-(phenylamino)-12-[[(1r,4r)-4-(dimethylamino)cyclohexyl]oxy]-7-thia-9,11-diazatricyclo[6.4.0.0[2,6]]dodeca-1(8),2(6),9,11-tetraen-3-yl]acetamide]
≤ 5 | – | – | ≥ 1 | Cn1cc(Nc2nc(O[C@H]3CC[C@H](N4CCOCC4)CC3)c3c4c(sc3n2)CC[C@@H]4CC(N)=O)cn1 [Compound I-25]
≤ 5 | – | – | – | CN1CCN(c2ccc(Nc3nc(N[C@H]4CC[C@H](N(C)C)CC4)c4c5c(sc4n3)CCC5)cc2)CC1 [Compound I-69, 12-N-[4-(dimethylamino)cyclohexyl]-10-N-[4-(4-methylpiperazin-1-yl)phenyl]-7-thia-9,11-diazatricyclo[6.4.0.0[2,6]]dodeca-1(8),2(6),9,11-tetraene-10,12-diamine]
≤ 5 | – | – | – | c1cc(C2CCNCC2)ccc1Nc1nc(N[C@H]2CC[C@H](N3CCOCC3)CC2)c2c3c(sc2n1)CCC3 [Compound I-70, 12-N-[4-(morpholin-4-yl)cyclohexyl]-10-N-[4-(piperidin-4-yl)phenyl]-7-thia-9,11-diazatricyclo[6.4.0.0[2,6]]dodeca-1(8),2(6),9,11-tetraene-10,12-diamine hydrochloride]
≤ 5 | – | – | – | CN(C)[C@H]1CC[C@H](Nc2nc(Nc3ccc(C4CCNCC4)cc3)nc3sc4c(c23)CCC4)CC1 [Compound I-71, 12-N-[4-(dimethylamino)cyclohexyl]-10-N-[4-(piperidin-4-yl)phenyl]-7-thia-9,11-diazatricyclo[6.4.0.0[2,6]]dodeca-1(8),2(6),9,11-tetraene-10,12-diamine hydrochloride]
≤ 5 | ≤ 0.5 | ≤ 0.5 | – | Cn1cc(Nc2nc(N[C@H]3CC[C@H](N(C)C)CC3)c3c4c(sc3n2)CCC4)cn1 [Compound I-72, 12-N-[4-(dimethylamino)cyclohexyl]-10-N-(1-methyl-1H-pyrazol-4-yl)-7-thia-9,11-diazatricyclo[6.4.0.0[2,6]]dodeca-1(8),2(6),9,11-tetraene-10,12-diamine]
≤ 5 | 0.5 to 1 | ≤ 0.5 | – | Cn1cc(Nc2nc(O[C@H]3CC[C@H](N4CCOCC4)CC3)c3c4c(sc3n2)CCC4)cn1 [Compound I-73, N-(1-methyl-1H-pyrazol-4-yl)-12-[[4-(morpholin-4-yl)cyclohexyl]oxy]-7-thia-9,11-diazatricyclo[6.4.0.0[2,6]]dodeca-1(8),2(6),9,11-tetraen-10-amine]
≤ 5 | ≤ 0.5 | ≤ 0.5 | – | Cn1cc(Nc2nc(N[C@H]3CC[C@H](N4CCOCC4)CC3)c3c4c(sc3n2)CCC4)cn1 [Compound I-74, 10-N-(1-methyl-1H-pyrazol-4-yl)-12-N-[4-(morpholin-4-yl)cyclohexyl]-7-thia-9,11-diazatricyclo[6.4.0.0[2,6]]dodeca-1(8),2(6),9,11-tetraene-10,12-diamine]
≤ 5 | 1 to 5 | 1 to 5 | – | CN(C)[C@H]1CC[C@H](Nc2nc(Nc3ccccc3)nc3sc4c(c23)CCC4)CC1 [Compound I-75, 12-N-[4-(dimethylamino)cyclohexyl]-10-N-phenyl-7-thia-9,11-diazatricyclo[6.4.0.0[2,6]]dodeca-1(8),2(6),9,11-tetraene-10,12-diamine]
≤ 5 | ≤ 0.5 | ≤ 0.5 | – | c1nscc1Nc1nc(N[C@H]2CC[C@H](N3CCOCC3)CC2)c2c3c(sc2n1)CCC3 [Compound I-76]
≤ 5 | ≤ 0.5 | ≤ 0.5 | – | c1nocc1Nc1nc(N[C@H]2CC[C@H](N3CCOCC3)CC2)c2c3c(sc2n1)CCC3 [Compound I-77]

SMILES | IC50 (IRAK4) [µM] | IC50 [1] [µM] | IC50 [2] [µM] | IC50 [3] [µM]
CN1CCN(c2ccc(Nc3nc(O[C@H]4CC[C@H](N(C)C)CC4)c4c5c(sc4n3)CCC5CC(N)=O)cc2)CC1 (stereo partly drawn) [Compound I-19, 2-(4-(((1r,4r)-4-(dimethylamino)cyclohexyl)oxy)-2-((4-(4-methylpiperazin-1-yl)phenyl)amino)-6,7-dihydro-5H-cyclopenta[4,5]thieno[2,3-d]pyrimidin-5-yl)acetamide] | ≤ 5 | – | ≥ 5 | –
CN1CCN(c2ccc(Nc3nc(O[C@H]4CC[C@H](N(C)C)CC4)c4c5c(sc4n3)CC[C@@H]5CC(N)=O)cc2)CC1 [Compound I-23] | ≤ 5 | 1 to 5 | ≥ 5 | –
